# Test results from publication PMC10610198, “Inhibitory Activity of Natural cis-Khellactone on Soluble Epoxide Hydrolase and Proinflammatory Cytokine Production in Lipopolysaccharides-Stimulated RAW264.7 Cells” (Plants, 2023).
# Biological target: T1, soluble epoxide hydrolase (sEH) (Homo sapiens, UniProt P34913)
# T1 construct: gene EPHX2
# T1 sequence (P34913 1-555): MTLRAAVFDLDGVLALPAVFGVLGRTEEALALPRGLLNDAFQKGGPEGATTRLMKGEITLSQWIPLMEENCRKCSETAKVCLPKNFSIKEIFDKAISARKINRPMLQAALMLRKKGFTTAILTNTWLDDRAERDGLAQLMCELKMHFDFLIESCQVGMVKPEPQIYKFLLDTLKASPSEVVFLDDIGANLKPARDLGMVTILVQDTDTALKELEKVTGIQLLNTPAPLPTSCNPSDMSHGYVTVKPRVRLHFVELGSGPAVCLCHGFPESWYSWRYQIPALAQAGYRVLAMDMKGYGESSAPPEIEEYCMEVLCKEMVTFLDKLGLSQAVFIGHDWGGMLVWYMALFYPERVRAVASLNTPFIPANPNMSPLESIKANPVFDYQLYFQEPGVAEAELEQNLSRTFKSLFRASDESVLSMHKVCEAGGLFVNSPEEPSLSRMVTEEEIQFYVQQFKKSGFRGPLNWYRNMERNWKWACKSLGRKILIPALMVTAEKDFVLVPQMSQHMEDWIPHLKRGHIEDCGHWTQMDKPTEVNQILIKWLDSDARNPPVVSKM
# Test: fluorescent PHOME hydrolysis assay with recombinant sEH; Lineweaver–Burk and Dixon plots
# Assay type: biochemical
structure (smiles),measurement,value
"CC1(C)Oc2ccc3ccc(=O)oc3c2[C@H](O)[C@@H]1O [compound 1, (−)cis-Khellactone]",Ki,3.5 µM
